Assay results as given in patent US20250346601A1, “HETEROCYCLIC COMPOUNDS FOR THE PREVENTION AND THERAPY OF CIRCADIAN RHYTHM DISORDERS” (UNIVERZITA PALACKEHO V OLOMOUCI, priority 2022, published 2025).

Columns and labels:
[1] = test system: explanted choroid plexus (ChP) of 4th brain ventricle; assay: PER2::Luc rhythm in explanted choroid plexus (luminescence microscopy); format: cell-based, mouse; conditions: 200 uM, choroid plexus explant
Description: FIG. 6: Compound 4 affects the circadian clock in the explanted choroid plexus (CHP). (A) Individual PER2::Luc traces in analysed single-cell-sized regions of interest (ROIs) of explanted choroid plexus (CP) cultivated over 5 days ex vivo in the presence of DMSO (left) or compound 4 (right). Cosine curve below the traces indicates average oscillation across the whole explant; see dramatic increase of period in the presence of 200 uM compound 4. […] (Example 15)
Male mPer2Luc were kept and sacrificed under the same conditions as above. Their brains were removed, choroid plexus was dissected from the 4th ventricle in ice-cold HBSS medium and placed on Millicell Culture Inserts inside 6-well plate with test compound or DMSO vehicle in 1 ml air-buffered recording medium supplemented with 100 U/ml penicillin, 100 ug/ml streptomycin (Sigma-Aldrich, St. Luis, MO, USA), 1x GlutaMAX (ThermoFisher, Waltham, MA, USA), 1x B27 (ThermoFisher) and 0.1 mM Luciferin-EF (Promega Madison, WI, USA). The were placed inside Luminoview LV200 Miscroscope (Olympus, USA) with liquid-cooled EM-CCD camera (Hamamatsu) and luminescence was recorded by 10 min exposure every 1h.

[2] = test system: explanted suprachiasmatic nuclei (SCN) of the hypothalamus; assay: PER2::Luc rhythm in organotypic explants of suprachiasmatic nucleus (LumiCycle); format: cell-based, mouse; conditions: ratio of period 72 h after and 72 h before application
Description: FIG. 5. Compounds of formula I modulate the parameters of the circadian clock in the suprachiasmatic nucleus, the central circadian oscillator. It increases the period (left; measured as the ratio of period during 72 h after and 72 h before application of a compound) and induces phase shift (right; quantified by fitting a cosine curve before the application of a compound, extrapolating it beyond the time of application and subtracting the actual and extrapolated phases of the first full circadian cycle corrected by endogenous period of the explant, while designating phase advance as positive and phase delay as negative number in hours). (Example 14)
Male and female mPer2Luc mice (strain B6.129S6-Per2tm1Jt/J, JAX, USA) (Yoo et al., 2004; doi: 10.1073/pnas.0308709101) were maintained in a light/dark cycle with 12 hours of light and 12 hours of darkness (LD12: 12), killed between 12:00 and 15:00, i.e. 6-9 hours after turning on the lights, by rapid cervical dislocation under isoflurane anesthesia, their brains were removed and 250 μm thick SCN slices in ice-cold HBSS medium were prepared using a vibratome (Leica, Wetzlar, Germany). Two explants containing SCN from each brain were prepared. […]

[3] = test system: NIH3T3 line transfected with the Per2-Luc reporter; assay: Period of the circadian rhythm in NIH3T3 fibroblasts with Per2-Luc reporter (luminescence, cosinor analysis); format: cell-based, mouse; conditions: 50 μM; NIH3T3; DMSO control = 1.00
Description: NIH3T3 mouse embryonic fibroblasts were grown in standard DMEM with 10% fetal bovine serum. NIH3T3 cells were transfected with 1 μg of Per2-Luc reporter using GeneJuice and selected under hygromycin. The cell line was clonally expanded and a single monoclonal cell line was used for further experiments. Cells were cultured in a 96-well plate in growth medium to 90+% confluence. Test compound or vehicle (DMSO) was applied to recording medium with 100 U/ml penicillin, 100 μg/ml streptomycin, 1x GlutaMAX, 10% fetal calf serum and 0.1 mM Luciferin-EF (Promega Madison, WI, USA). Luminescence was recorded every hour for the next 144 hours. Circadian rhythm analysis was performed using cosinor analysis. Period length was expressed relative to the period of cells affected only by DMSO vehicle (their period length is therefore 1.00).

[4] = test system: U2OS line transduced with the Bmal 1-Luc reporter; assay: Period of the circadian rhythm in U2OS cells with Bmal1-Luc reporter (luminescence, cosinor analysis); format: cell-based, Human; conditions: 20 μM; U2OS; DMSO control = 1.00
Description: Human osteosarcoma U2OS cells were grown in standard DMEM medium with 10% fetal bovine serum. U2OS cells were transduced with lentiviral particles containing a Bmall-Luc fusion reporter and selected under Blasticidin. The cell line was clonally expanded and a single monoclonal cell line was used for further experiments. Cells were cultured in a 384-well plate in growth medium to 90+% confluence. Test compound or vehicle (DMSO) was applied to recording medium with 100 U/ml penicillin, 100 ug/ml streptomycin, 1x GlutaMAX, 10% fetal bovine serum, and 0.1 mM Luciferin-EF. Luminescence was recorded every hour for the next 144 hours. Circadian rhythm analysis was performed using cosinor analysis.
The length of the period was expressed relative to the period of cells affected only by DMSO vehicle (their period is therefore 1.00). […] The overall effect on circadian oscillations unequivocally proves that the compounds of formula I can be also used to temporally modulate the concentration and activity of not only BMAL1, but also other components of the oscillator including the critical components PER2, CRY and CLOCK in time, as these are an essential part of the mechanism generating the rhythmic expression of the luminescent reporter used. The concentration and level of other proteins, whose rhythmic expression is controlled by an oscillator in the brain and peripheral tissues (so-called clock-controlled genes), are also necessarily affected. The influence of the compounds of formula I on the activity of oscillator components and subordinate genes also means influencing the physiological processes of the cell controlled by these genes and proteins. N^6-furfuryladenine was used as a reference compound. […] The ability to shift the phase of the circadian cycle can be seen in FIG. 2.

c1coc(CNc2ncnc3c2ncn3C2CCCCO2)c1 (centres unmarked) [Compound 4, N-(furan-2-ylmethyl)-9-(tetrahydro-2H-pyran-2-yl)-9H-purin-6-amine]
Period of PER2::Luc (in words) ([1]; 5 days ex vivo, vs DMSO): significantly (t-test, P<0.0001) increased
Phase of PER2::Luc (in words) ([1]; polar histogram of ROIs vs DMSO): dramatically affected
Circadian rhythm period (in words) [2]: increases the circadian rhythm period
Period length ± standard error of the mean (expressed relative to the control) at the indicated concentration [3]: 50 μM: 1.23 ± 0.03
Period length ± standard error of the mean (expressed relative to control) at the indicated concentration [4]: 20 μM: 1.08 ± 0
